The results in this text go back to article PMC7933930, “Development of a small molecule that corrects misfolding and increases secretion of Z α1‐antitrypsin” (EMBO Molecular Medicine, 2021).

The test system of one series is human hepatocytes. Put plainly: Hepatocyte clearance, human. Format: in vitro ADME. How it is done: Williams E media supplemented with 2 mM L‐glutamine and 25 mM HEPES and test compound (final compound concentration 0.5 µM; final DMSO concentration 0.25% v/v) were preincubated at 37°C prior to the addition of a suspension of cryopreserved pooled hepatocytes (final cell density 0.5 × 10^6 viable cells/ml) to initiate the reaction. The final incubation volume was 500 µl. The reactions were stopped by transferring 50 µl of incubate to 100 µl acetonitrile containing internal standard at the appropriate time points (0, 5, 10, 20, 40 and 60 min, 0, 10, 20, 40, 60 and 120 min or 0, 20, 40, 60, 120 and 240 min). The control (lysed cells or vehicle) was incubated for 60, 120 or 240 min only. The termination plates were centrifuged at 2,500 rpm at 4°C for 30 min to precipitate the protein. Following protein precipitation, the sample supernatants were analysed by LC‐MS/MS. From a plot of loge peak area ratio (compound peak area/internal standard peak area) against time, the gradient of the line was determined and half‐life (t½) and intrinsic clearance (CLint) were calculated.

The target in the next series is Serotonin 5HT1B (Homo sapiens, UniProt P28222). Put plainly: Off‐target panel: Serotonin 5HT1B. In kind it is cell-based. How it is done:
(§1) GSK716 selectivity and PK properties were profiled in order to investigate the suitability of GSK716 for progression into in vivo studies and the potential for taking it forward as a clinical candidate for testing in humans. Since GSK716 results in loss of inhibitory activity of α1‐antitrypsin, the effect of the compound was assessed on other closely related serpins. […] Furthermore, there were no off‐target effects in a panel of assays considered predictive of known safety liabilities that precluded further development of GSK716 (Table EV1).

The next series concerns the target α1‐antichymotrypsin (Homo sapiens, UniProt P01011). The series is described as follows: Inhibitory activity of α1‐antichymotrypsin against chymotrypsin. In kind it is biochemical. The procedure:
(§2) Figure 5 The effect of GSK716 on serpin inhibitory activity • α1‐Antitrypsin was incubated at varying molar ratios with the model protease bovine α‐chymotrypsin, and the residual protease activity determined. The intercept of the regression with the abscissa reflects the number of molecules of α1‐antitrypsin required to inhibit one molecule of chymotrypsin in the presence (+c) and absence (−c) of 50µM GSK716. Error bars reflect ± SEM of three independent experiments. • M α1‐antitrypsin was incubated with different molar ratios of chymotrypsin and resolved by SDS–PAGE. The position of covalent α1‐antitrypsin‐chymotrypsin complex (cpx), native (nat) and cleaved (clv) is shown. • The inhibitory activity of α1‐antichymotrypsin against chymotrypsin (ach + chym), neuroserpin against trypsin (neus + tryp), and antithrombin against thrombin (atiii + thrombin) was determined in the presence and absence of GSK716. Error bars reflect ± SD of two independent experiments.
(§3) GSK716 selectivity and PK properties were profiled in order to investigate the suitability of GSK716 for progression into in vivo studies and the potential for taking it forward as a clinical candidate for testing in humans. Since GSK716 results in loss of inhibitory activity of α1‐antitrypsin, the effect of the compound was assessed on other closely related serpins. […]

A further series has as its target Z α1‐antitrypsin (Homo sapiens, UniProt P01009, E366K). The series is described as follows: TR‐FRET immunoassay (2C1 antibody) of Z α1‐antitrypsin polymerisation, 37°C, 72 h. Details: purified from the plasma of Z α1‐antitrypsin homozygotes; from tissue; host or cells: human plasma of Z α1-antitrypsin homozygotes. In kind it is biochemical. An excerpt:
Z α1‐antitrypsin is a conformationally dynamic molecule (Lomas et al, 1992; Knaupp et al, 2010) that represents a non‐classical target for drug discovery. A cell‐free assay approach to hit finding was undertaken so as not to miss compounds that bind α1‐antitrypsin and block polymerisation but lack the molecular properties to cross cell membranes. This comprised the following: (i) an encoded library technology (ELT) screen (Goodnow et al, 2017) of a library with a nominal diversity of 2 × 10^12 unique components to identify binders to Z α1‐antitrypsin and (ii) a high‐throughput screen (HTS) of the GSK compound collection (~ 1.7 million compounds) for small molecules that could block polymerisation of Z α1‐antitrypsin. […] In the HTS assay, polymerisation of purified Z α1‐antitrypsin was induced by incubation at 37°C for 72 h in the presence of test compounds, with end‐point quantification of polymers performed using the polymer‐specific monoclonal antibody, 2C1 (Miranda et al, 2010) in a TR‐FRET‐based immunoassay. […]
An antibody‐based time‐resolved fluorescence resonance energy transfer (TR‐FRET) assay was developed to monitor the polymerisation of 5 nM Z α1‐antitrypsin following incubation with varying concentrations of compounds at 37°C for 72 h. This assay used the 2C1 monoclonal antibody (1.25 nM) that is specific to pathological polymers of α1‐antitrypsin (Miranda et al, 2010), a polyclonal antibody (1/320 dilution) that binds to all forms of α1‐antitrypsin (Abcam product 9373), an anti‐mouse IgG (1.5 nM) labelled with fluorescence donor Eu‐W1024 (Perkin Elmer product AD0076) and an anti‐rabbit IgG (14.3 nM labelled with acceptor [APC]). […] The TR‐FRET signal was read on an Envision plate reader (PerkinElmer), by excitation of Europium at 337 nm and detection of emission at 665 and 620 nm.

The next series has as its target neuroserpin (Homo sapiens, UniProt Q99574). Put plainly: Inhibitory activity of neuroserpin against trypsin. In kind it is biochemical. How it is done: as §2, §3
In a further series the target is PXR (human) (Homo sapiens, UniProt O75469). The series is described as follows: Off‐target panel: PXR (human). Format: cell-based. The following applies: Activator, read-out: Mean (PXC50) (converted). How it is done: as §1
Chain of PXR (human) (O75469 whole entry): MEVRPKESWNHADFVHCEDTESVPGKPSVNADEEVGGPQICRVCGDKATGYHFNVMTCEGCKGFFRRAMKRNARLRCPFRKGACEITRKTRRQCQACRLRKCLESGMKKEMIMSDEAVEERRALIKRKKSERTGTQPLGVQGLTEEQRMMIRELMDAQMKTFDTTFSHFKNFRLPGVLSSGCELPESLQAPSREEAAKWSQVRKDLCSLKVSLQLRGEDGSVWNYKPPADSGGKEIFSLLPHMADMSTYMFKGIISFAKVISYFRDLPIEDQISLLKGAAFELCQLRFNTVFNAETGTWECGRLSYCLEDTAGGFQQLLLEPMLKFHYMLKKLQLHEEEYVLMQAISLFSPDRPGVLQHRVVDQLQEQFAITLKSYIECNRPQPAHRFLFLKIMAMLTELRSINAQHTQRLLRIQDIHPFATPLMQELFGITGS
In a further series the target is Aurora B (STK12) (Homo sapiens, UniProt Q96GD4). Put plainly: Off‐target panel: Aurora B (STK12). Format: biochemical. Particulars: Inhibition, read-out: Mean (PXC50). The procedure: as §1
Chain of Aurora B (STK12) (Q96GD4 whole entry, species assumed): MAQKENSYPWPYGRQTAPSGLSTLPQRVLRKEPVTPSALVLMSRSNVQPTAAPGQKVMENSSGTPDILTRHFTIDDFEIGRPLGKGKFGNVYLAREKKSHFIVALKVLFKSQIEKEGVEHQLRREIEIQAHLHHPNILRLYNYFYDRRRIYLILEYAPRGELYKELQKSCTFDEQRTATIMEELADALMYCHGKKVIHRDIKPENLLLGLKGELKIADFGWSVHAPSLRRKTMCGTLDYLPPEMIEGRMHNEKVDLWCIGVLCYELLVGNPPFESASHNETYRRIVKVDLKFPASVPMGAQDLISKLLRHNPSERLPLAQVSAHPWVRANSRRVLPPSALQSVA

Structures are written as SMILES.

Chain of Serotonin 5HT1B (P28222 whole entry): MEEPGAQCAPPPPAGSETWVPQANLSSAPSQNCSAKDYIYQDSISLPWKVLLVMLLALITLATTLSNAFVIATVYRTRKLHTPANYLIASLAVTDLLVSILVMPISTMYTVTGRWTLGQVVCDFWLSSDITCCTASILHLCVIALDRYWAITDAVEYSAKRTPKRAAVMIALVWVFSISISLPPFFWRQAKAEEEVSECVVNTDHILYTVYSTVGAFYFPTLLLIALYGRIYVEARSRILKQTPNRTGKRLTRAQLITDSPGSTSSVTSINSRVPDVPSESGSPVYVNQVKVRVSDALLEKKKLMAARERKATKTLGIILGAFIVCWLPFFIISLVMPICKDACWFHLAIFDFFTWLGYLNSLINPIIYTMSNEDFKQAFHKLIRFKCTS
Chain of Z α1‐antitrypsin (P01009 25-418 E366K): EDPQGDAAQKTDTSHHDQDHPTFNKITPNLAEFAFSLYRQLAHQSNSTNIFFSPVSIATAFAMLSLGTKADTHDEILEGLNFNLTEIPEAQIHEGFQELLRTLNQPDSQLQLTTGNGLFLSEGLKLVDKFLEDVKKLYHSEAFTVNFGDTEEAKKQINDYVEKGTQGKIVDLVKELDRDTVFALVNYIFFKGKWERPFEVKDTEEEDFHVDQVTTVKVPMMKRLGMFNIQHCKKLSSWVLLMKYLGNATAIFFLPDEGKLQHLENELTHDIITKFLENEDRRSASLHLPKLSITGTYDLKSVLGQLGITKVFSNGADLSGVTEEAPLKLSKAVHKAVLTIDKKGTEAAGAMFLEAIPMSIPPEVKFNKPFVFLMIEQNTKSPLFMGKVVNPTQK
Chain of α1‐antichymotrypsin (P01011 24-423, species assumed): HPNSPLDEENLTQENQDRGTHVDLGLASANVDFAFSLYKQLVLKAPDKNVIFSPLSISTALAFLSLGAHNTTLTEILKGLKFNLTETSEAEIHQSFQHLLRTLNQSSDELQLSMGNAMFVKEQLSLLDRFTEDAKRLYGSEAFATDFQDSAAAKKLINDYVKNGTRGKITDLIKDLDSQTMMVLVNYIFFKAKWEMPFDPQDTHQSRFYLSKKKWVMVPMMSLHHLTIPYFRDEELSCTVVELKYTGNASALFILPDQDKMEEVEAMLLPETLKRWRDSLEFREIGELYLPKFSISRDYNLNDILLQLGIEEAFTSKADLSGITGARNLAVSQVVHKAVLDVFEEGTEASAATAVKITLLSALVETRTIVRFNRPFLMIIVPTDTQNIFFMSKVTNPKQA
Chain of neuroserpin (Q99574 17-410, species assumed): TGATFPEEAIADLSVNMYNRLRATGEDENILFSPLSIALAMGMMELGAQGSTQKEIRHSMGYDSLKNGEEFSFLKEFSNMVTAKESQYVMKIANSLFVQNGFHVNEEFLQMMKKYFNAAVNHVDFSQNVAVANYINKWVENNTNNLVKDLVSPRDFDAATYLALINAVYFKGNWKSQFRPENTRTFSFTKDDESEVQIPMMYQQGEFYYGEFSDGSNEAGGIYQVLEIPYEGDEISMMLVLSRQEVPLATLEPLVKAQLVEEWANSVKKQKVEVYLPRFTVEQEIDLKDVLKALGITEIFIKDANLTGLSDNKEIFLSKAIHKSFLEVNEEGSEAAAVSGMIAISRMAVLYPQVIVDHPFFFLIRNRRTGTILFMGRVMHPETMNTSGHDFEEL

For the compound `CCC[C@@H](NC(=O)c1cccc2c1CC(=O)N2)[C@@H](O)c1cccc(F)c1C` [GSK716], the “metabolic clearance in human hepatocytes” value in the series on human hepatocytes turned out to be 0.31 ml/min/g tissue. The EC50 was over 100 µM at Serotonin 5HT1B and 20 µM on PXR (human). For the same compound, the IC50 was over 100 µM against Serotonin 5HT1B; 0.00501 µM on Z α1‐antitrypsin (5 nM Z α1‐antitrypsin, 37°C, 72 h, read-out: pIC50, blocking polymerisation in the TR‐FRET immunoassay (converted)); over 31.6 µM on Aurora B (STK12). For the same compound, on α1‐antichymotrypsin, the “inhibitory activity of α1‐antichymotrypsin towards its cognate protease” value is on record as “did not affect”. In addition, on Z α1‐antitrypsin (TR‐FRET polymerisation immunoassay), the “increase in potency over GSK425” value is ~ 100 fold. In addition, the “inhibitory activity of neuroserpin towards its cognate protease” value against neuroserpin is recorded as “did not affect”.
